Tests used:
[1] = tested on: bicistronic HCV replicon (replicon RNA, GenBank Accession No. AJ242654); assay: HCV Replicon Assay; assay type: cell-based; settings: Hepatitis C virus, 72 h, read-out: Replicon IC50

Compound | melting point | IC50 [1]
Cc1ccc2c(C#N)c(-c3ccc(S(=O)(=O)N[C@H](C)C(F)(F)F)cn3)n(C(C)C)c2c1 [compound 210, 6-[3-cyano-6-methyl-1-(propan-2-yl)-1H-indol-2-yl]-N-[(2R)-1,1,1-trifluoropropan-2-yl]pyridine-3-sulfonamide] | 211 to 216 °C | < 500 nM
C[C@H](NS(=O)(=O)c1ccc(-c2c(C(N)=O)c3c(F)cc(OC(F)F)cc3n2CC2CC2)nc1)C(F)(F)F [compound 840, 1-(cyclopropylmethyl)-6-(difluoromethoxy)-4-fluoro-2-(5-{[(2S)-1,1,1-trifluoropropan-2-yl]sulfamoyl}pyridin-2-yl)-1H-indole-3-carboxamide] | 211 to 212 °C | < 500 nM
Cc1ccc2c(C#N)c(-c3ccc(S(=O)(=O)N[C@@H](C)C(F)(F)F)cn3)n(-c3ccccn3)c2c1 [compound 476, 6-[3-cyano-6-methyl-1-(pyridin-2-yl)-1H-indol-2-yl]-N-[(2S)-1,1,1-trifluoropropan-2-yl]pyridine-3-sulfonamide] | 199 to 203 °C | < 500 nM
CCc1cc2c(cc1F)c(C(=O)O)c(-c1ccc(NS(=O)(=O)C(C)(C)C)nc1)n2[C@H](C)C1CC1 [compound 1103, 2-{6-[(tert-butylsulfonyl)amino]pyridin-3-yl}-1-[(1R)-1-cyclopropylethyl]-6-ethyl-5-fluoro-1H-indole-3-carboxylic acid] | 165 °C (dec.) | 500 to 2000 nM
CC(C)NS(=O)(=O)c1cnc(-c2c(C(N)=O)c3ccc(OC(F)(F)F)cc3n2C2CCC2)nc1 [compound 781, 1-cyclobutyl-2-[5-(propan-2-ylsulfamoyl)pyrimidin-2-yl]-6-(trifluoromethoxy)-1H-indole-3-carboxamide] | 222 to 223 °C | < 500 nM
N#Cc1c(-c2ncc(S(=O)(=O)NC(CF)CF)cn2)n(-c2ccccc2)c2cc(OC(F)F)ccc12 [compound 610, 2-[3-cyano-6-(difluoromethoxy)-1-phenyl-1H-indol-2-yl]-N-(1,3-difluoropropan-2-yl)pyrimidine-5-sulfonamide] | 206 to 208 °C | < 500 nM
CCc1cc(OC)c2c(C#N)c(-c3ccc(S(=O)(=O)N[C@@H](C)C(F)(F)F)cn3)n(C3CCC3)c2c1 [compound 858, 6-(3-cyano-1-cyclobutyl-6-ethyl-4-methoxy-1H-indol-2-yl)-N-[(2S)-1,1,1-trifluoropropan-2-yl]pyridine-3-sulfonamide] | 187 to 188 °C | 500 to 2000 nM
Cc1cc2c(C#N)c(-c3ncc(S(=O)(=O)NC(C)C)cn3)n(C3CCCC3)c2cc1Cl [compound 523, 2-(6-chloro-3-cyano-1-cyclopentyl-5-methyl-1H-indol-2-yl)-N-(propan-2-yl)pyrimidine-5-sulfonamide] | 216 to 216.5 °C | 500 to 2000 nM
Cc1cc2c(cc1F)c(C#N)c(-c1ccc(S(=O)(=O)N[C@@H](C)C(F)(F)F)cn1)n2-c1ncc(Cl)cn1 [compound 914, 6-[1-(5-chloropyrimidin-2-yl)-3-cyano-5-fluoro-6-methyl-1H-indol-2-yl]-N-[(2S)-1,1,1-trifluoropropan-2-yl]pyridine-3-sulfonamide] | 213 to 218 °C | < 500 nM
Cc1cc2c(cc1F)c(C#N)c(-c1ccc(S(=O)(=O)N[C@@H](C)C(F)(F)F)cn1)n2C1CCCCC1 [compound 678, 6-(3-cyano-1-cyclohexyl-5-fluoro-6-methyl-1H-indol-2-yl)-N-[(2S)-1,1,1-trifluoropropan-2-yl]pyridine-3-sulfonamide] | 224 to 229 °C | < 500 nM
Cc1ccc2c(C#N)c(-c3ccc(S(=O)(=O)N[C@@H](C)C(F)(F)F)cn3)n(-c3ncccn3)c2c1 [compound 677, 6-[3-cyano-6-methyl-1-(pyrimidin-2-yl)-1H-indol-2-yl]-N-[(2S)-1,1,1-trifluoropropan-2-yl]pyridine-3-sulfonamide] | 195 to 198 °C | < 500 nM
C[C@H](NS(=O)(=O)c1cnc(-c2c(C#N)c3ccc(OC(F)F)cc3n2-c2ccccc2)nc1)C(F)(F)F [compound 611, 2-[3-cyano-6-(difluoromethoxy)-1-phenyl-1H-indol-2-yl]-N-[(2S)-1,1,1-trifluoropropan-2-yl]pyrimidine-5-sulfonamide] | 216 to 218 °C | < 500 nM
Cc1ccc2c(c1)c(C#N)c(-c1ncc(S(=O)(=O)NC(CF)CF)cn1)n2C1CCC1 [compound 122, 2-(3-cyano-1-cyclobutyl-5-methyl-1H-indol-2-yl)-N-(1,3-difluoropropan-2-yl)pyrimidine-5-sulfonamide] | 140 to 145 °C | < 500 nM
N#Cc1c(-c2ccc(S(=O)(=O)NC3(C(F)(F)F)CC3)cn2)n(C2CCCC2)c2cc(OC(F)F)ccc12 [compound 94, 6-[3-cyano-1-cyclopentyl-6-(difluoromethoxy)-1H-indol-2-yl]-N-[1-(trifluoromethyl)cyclopropyl]pyridine-3-sulfonamide] | 186 to 193 °C | < 500 nM
C[C@@H](NS(=O)(=O)c1ccc(-c2c(C#N)c3cc(C(F)F)ccc3n2C2CCCC2)nc1)C(F)(F)F [compound 538, 6-[3-cyano-1-cyclopentyl-5-(difluoromethyl)-1H-indol-2-yl]-N-[(2R)-1,1,1-trifluoropropan-2-yl]pyridine-3-sulfonamide] | 186 to 188 °C | < 500 nM
C[C@H](NS(=O)(=O)c1ccc(-c2c(C#N)c3ccc(C(F)F)cc3n2C2CCC2)nc1)C1CC1 [compound 335, 6-[3-cyano-1-cyclobutyl-6-(difluoromethyl)-1H-indol-2-yl]-N-[(1S)-1-cyclopropylethyl]pyridine-3-sulfonamide] | 182 to 189 °C | < 500 nM
N#Cc1c(-c2ccc(S(=O)(=O)NC(CF)CF)cn2)n(-c2ccc(F)cc2)c2cc(OC(F)F)ccc12 [compound 228, 6-[3-cyano-6-(difluoromethoxy)-1-(4-fluorophenyl)-1H-indol-2-yl]-N-(1,3-difluoropropan-2-yl)pyridine-3-sulfonamide] | 192 to 198 °C | < 500 nM
C[C@H](NS(=O)(=O)c1ccc(-c2c(C#N)c3cc(F)ccc3n2C2CCCCC2)nc1)C(F)(F)F [compound 410, 6-(3-cyano-1-cyclohexyl-5-fluoro-1H-indol-2-yl)-N-[(2S)-1,1,1-trifluoropropan-2-yl]pyridine-3-sulfonamide] | 209 to 211 °C | < 500 nM
CC(=O)N([C@H](C)C(F)(F)F)S(=O)(=O)c1ccc(-c2c(C#N)c3cc(F)c(C)cc3n2C2CCCC2)nc1 [compound 709, N-{[6-(3-cyano-1-cyclopentyl-5-fluoro-6-methyl-1H-indol-2-yl)pyridin-3-yl]sulfonyl}-N-[(2R)-1,1,1-trifluoropropan-2-yl]acetamide] | 162 to 163 °C | < 500 nM
C[C@H](NS(=O)(=O)c1ccc(-c2c(C#N)c3cc(Br)c(O)cc3n2C2CCC2)nc1)C(F)(F)F [compound 684, 6-(5-bromo-3-cyano-1-cyclobutyl-6-hydroxy-1H-indol-2-yl)-N-[(2S)-1,1,1-trifluoropropan-2-yl]pyridine-3-sulfonamide] | 223 to 224 °C | 500 to 2000 nM
Cc1ccc2c(c1)c(C#N)c(-c1ncc(S(=O)(=O)NC(CF)CF)cn1)n2C(C)C [compound 567, 2-[3-cyano-5-methyl-1-(propan-2-yl)-1H-indol-2-yl]-N-(1,3-difluoropropan-2-yl)pyrimidine-5-sulfonamide] | 160 to 163 °C | < 500 nM
Cc1c(F)cc2c(C#N)c(-c3ccc(S(=O)(=O)N[C@@H](C)C(F)(F)F)cn3)n(C3CCC3)c2c1F [compound 532, 6-(3-cyano-1-cyclobutyl-5,7-difluoro-6-methyl-1H-indol-2-yl)-N-[(2S)-1,1,1-trifluoropropan-2-yl]pyridine-3-sulfonamide] | 186 to 191 °C | < 500 nM
Cc1cc2c(C#N)c(-c3ccc(S(=O)(=O)NC(CF)CF)cn3)n(C3CCC3)c2cc1F [compound 493, 6-(3-cyano-1-cyclobutyl-6-fluoro-5-methyl-1H-indol-2-yl)-N-(1,3-difluoropropan-2-yl)pyridine-3-sulfonamide] | 209 to 213 °C | < 500 nM
Cc1c(OC(F)F)c(F)cc2c(C#N)c(-c3ccc(S(=O)(=O)N[C@@H](C)C(F)(F)F)cn3)n(C3CCC3)c12 [compound 811, 6-[3-cyano-1-cyclobutyl-6-(difluoromethoxy)-5-fluoro-7-methyl-1H-indol-2-yl]-N-[(2S)-1,1,1-trifluoropropan-2-yl]pyridine-3-sulfonamide] | 168 to 174 °C | < 500 nM
Cc1cc2c(cc1F)c(C#N)c(-c1ccc(S(=O)(=O)N[C@@H](C)C(F)(F)F)cn1)n2-c1ncccc1Cl [compound 971, 6-[1-(3-chloropyridin-2-yl)-3-cyano-5-fluoro-6-methyl-1H-indol-2-yl]-N-[(2S)-1,1,1-trifluoropropan-2-yl]pyridine-3-sulfonamide] | 221 to 225 °C | 500 to 2000 nM
C[C@H](NS(=O)(=O)c1ccc(-c2c(C#N)c3cc(F)c(OC(F)F)cc3n2-c2ccccn2)nc1)C(F)(F)F [compound 657, 6-[3-cyano-6-(difluoromethoxy)-5-fluoro-1-(pyridine-2-yl)-1H-indol-2-yl]-N-[(2S)-1,1,1-trifluoropropan-2-yl]pyridine-3-sulfonamide] | 161 to 163 °C | < 500 nM
C[C@H](NS(=O)(=O)c1cnc(-c2c(C#N)c3ccc(CC(F)F)cc3n2CC2CC2)nc1)C1CC1 [compound 619, 2-[3-cyano-1-(cyclopropylmethyl)-6-(2,2-difluoroethyl)-1H-indol-2-yl]-N-[(1S)-1-cyclopropylethyl]pyrimidine-5-sulfonamide] | 144 to 150 °C | < 500 nM

Reference: patent US8735414B2 (priority 2009, dated 2014)
